# From ChEMBL document CHEMBL1201862, “PubChem BioAssay data set” (2004)
#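 Dose response: 5 concentrations. Exposure: 48 h. Format: 96-well plates. Endpoint: linear interpolation; highest concentration if not reached. GI50: concentration for 50% inhibition of growth.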 The source made the active and inactive calls. Cut-off read from the data, not from the text of the source: active = GI50 up to about 1.1 µM and inactive = higher.
# Key:
# Test in all cases: NCI anticancer screen, dose series, 48 h
# [1] = tested on: 786-0
# [2] = tested on: A498
# [3] = tested on: A549
# [4] = tested on: ACHN
# [5] = tested on: CCRF-CEM
# [6] = tested on: COLO 205
# [7] = tested on: DLD-1
# [8] = tested on: DMS-273
# [9] = tested on: EKVX
# [10] = tested on: HCC 2998
# [11] = tested on: HCT-116
# [12] = tested on: HCT-15
# [13] = tested on: HL-60
# [14] = tested on: HOP-62
# [15] = tested on: HOP-92
# [16] = tested on: HT-29
# [17] = tested on: IGROV-1
# [18] = tested on: KM-20L2
# [19] = tested on: KM12
# [20] = tested on: LOX IMVI
# [21] = tested on: LXFL 529
# [22] = tested on: M14
# [23] = tested on: M19-MEL
# [24] = tested on: MOLT-4
# [25] = tested on: Malme-3M
# [26] = tested on: NCI-H226
# [27] = tested on: NCI-H23
# [28] = tested on: NCI-H460
# [29] = tested on: NCI-H522
# [30] = tested on: OVCAR-3
# [31] = tested on: OVCAR-4
# [32] = tested on: OVCAR-5
# [33] = tested on: OVCAR-8
# [34] = tested on: RPMI-8226
# [35] = tested on: SF-268
# [36] = tested on: SF-295
# [37] = tested on: SF-539
# [38] = tested on: SK-MEL-28
# [39] = tested on: SK-MEL-2
# [40] = tested on: SK-MEL-5
# [41] = tested on: SK-OV-3
# [42] = tested on: SN12C
# [43] = tested on: SNB-75
# [44] = tested on: SNB-78
# [45] = tested on: SR
# [46] = tested on: TK-10
# [47] = tested on: U-251
# [48] = tested on: UACC-257
# [49] = tested on: UACC-62
# [50] = tested on: UO-31
# [51] = tested on: XF498
# [52] = tested on: CAKI-1
# [53] = tested on: DMS-114
# [54] = tested on: K562
# [55] = tested on: RXF 393
# [56] = tested on: SNB-19
# [57] = tested on: SW-620
smiles,measurement,setting,value
Cc1c(-c2coc(-c3ccc(Cl)cc3)n2)c(=O)n(-c2ccccc2)n1C,GI50,[1],> 100 µM (inactive)
same,GI50,[2],> 100 µM (inactive)
same,GI50,[3],> 100 µM (inactive)
same,GI50,[4],> 100 µM (inactive)
same,GI50,[5],> 100 µM (inactive)
same,GI50,[6],> 100 µM (inactive)
same,GI50,[7],> 100 µM (inactive)
same,GI50,[8],> 100 µM (inactive)
same,GI50,[9],> 100 µM (inactive)
same,GI50,[10],9.4 µM (inactive)
same,GI50,[11],> 100 µM (inactive)
same,GI50,[12],> 100 µM
same,GI50,[13],> 100 µM (inactive)
same,GI50,[14],> 100 µM (inactive)
same,GI50,[15],> 100 µM (inactive)
same,GI50,[16],> 100 µM (inactive)
same,GI50,[17],> 100 µM (inactive)
same,GI50,[18],> 100 µM (inactive)
same,GI50,[19],> 100 µM (inactive)
same,GI50,[20],> 100 µM (inactive)
same,GI50,[21],> 100 µM (inactive)
same,GI50,[22],> 100 µM (inactive)
same,GI50,[23],> 100 µM (inactive)
same,GI50,[24],> 100 µM (inactive)
same,GI50,[25],> 100 µM (inactive)
same,GI50,[26],> 100 µM (inactive)
same,GI50,[27],> 100 µM (inactive)
same,GI50,[28],> 100 µM (inactive)
same,GI50,[29],> 100 µM (inactive)
same,GI50,[30],93.3 µM (inactive)
same,GI50,[31],> 100 µM (inactive)
same,GI50,[32],> 100 µM (inactive)
same,GI50,[33],> 100 µM (inactive)
same,GI50,[34],> 100 µM (inactive)
same,GI50,[35],> 100 µM (inactive)
same,GI50,[36],> 100 µM (inactive)
same,GI50,[37],> 100 µM (inactive)
same,GI50,[38],> 100 µM (inactive)
same,GI50,[39],> 100 µM (inactive)
same,GI50,[40],> 100 µM (inactive)
same,GI50,[41],> 100 µM (inactive)
same,GI50,[42],> 100 µM (inactive)
same,GI50,[43],> 100 µM (inactive)
same,GI50,[44],> 100 µM (inactive)
same,GI50,[45],> 100 µM (inactive)
same,GI50,[46],> 100 µM (inactive)
same,GI50,[47],> 100 µM (inactive)
same,GI50,[48],> 100 µM (inactive)
same,GI50,[49],> 100 µM (inactive)
same,GI50,[50],> 100 µM (inactive)
same,GI50,[51],19.1 µM (inactive)
OC1(C(Sc2ccccc2)Sc2ccccc2)CCCCCC1,GI50,[1],22.4 µM (inactive)
same,GI50,[2],34 µM (inactive)
same,GI50,[3],28 µM (inactive)
same,GI50,[4],26 µM (inactive)
same,GI50,[52],12.2 µM (inactive)
same,GI50,[5],25.2 µM (inactive)
same,GI50,[6],23.6 µM (inactive)
same,GI50,[7],38.4 µM (inactive)
same,GI50,[53],27.1 µM (inactive)
same,GI50,[8],27.8 µM (inactive)
same,GI50,[9],21.2 µM (inactive)
same,GI50,[11],27.8 µM (inactive)
same,GI50,[12],24.4 µM
same,GI50,[13],24 µM (inactive)
same,GI50,[14],21.9 µM (inactive)
same,GI50,[15],28.6 µM (inactive)
same,GI50,[54],> 10 µM (inactive)
same,GI50,[18],2.81 µM (inactive)
same,GI50,[19],34.9 µM (inactive)
same,GI50,[20],19.3 µM (inactive)
same,GI50,[22],18.7 µM (inactive)
same,GI50,[23],35.2 µM (inactive)
same,GI50,[24],28.6 µM (inactive)
same,GI50,[27],35.8 µM (inactive)
same,GI50,[28],28.2 µM (inactive)
same,GI50,[29],11.5 µM (inactive)
same,GI50,[30],20.9 µM (inactive)
same,GI50,[31],6.19 µM (inactive)
same,GI50,[33],38.8 µM (inactive)
same,GI50,[34],21.5 µM (inactive)
same,GI50,[55],> 10 µM (inactive)
same,GI50,[35],33.1 µM (inactive)
same,GI50,[36],26.8 µM (inactive)
same,GI50,[37],21.9 µM (inactive)
same,GI50,[38],56.1 µM (inactive)
same,GI50,[39],18.1 µM (inactive)
same,GI50,[40],16.1 µM (inactive)
same,GI50,[41],22.5 µM (inactive)
same,GI50,[42],16.2 µM (inactive)
same,GI50,[56],14.1 µM (inactive)
same,GI50,[43],33.4 µM (inactive)
same,GI50,[44],74.1 µM (inactive)
same,GI50,[45],20.8 µM (inactive)
same,GI50,[57],26.2 µM (inactive)
same,GI50,[46],58.2 µM (inactive)
same,GI50,[47],21.8 µM (inactive)
same,GI50,[48],26.9 µM (inactive)
same,GI50,[49],11.5 µM (inactive)
same,GI50,[50],3.13 µM (inactive)
same,GI50,[51],13.6 µM (inactive)
